Entries after “also recorded” stand apart in the source; their conditions may differ.
How the values were obtained:
[1] = Plasma and urine pharmacology study of Compound 1 in rats (LC/MS after IV injection); type: in vivo; conditions: rat
Experimental: (§1) To the samples were added a proportional amount of lysis buffer (about 5 ml/gram tissue) before the tissue was homogenized using a powered homogenizer, 50 μL of lysis buffer was added to the blood and urine samples, followed by briefly vortexing. 200 μl of organ homogenate was sampled into a 1.5 ml Eppendorf tube. All samples were heated at 100° C. for 2 minutes to denature the proteins and then placed in ice for 15 minutes. Then 40 μl of formic acid was added to the organ samples and 20 μl was added to the blood and urine samples. All tubes were vortexed to achieve complete mixing of sample with acid. Samples were then placed on ice for 15 minutes before being centrifuged at 13000 rpm for 15 minutes at 4° C. 30 μl of the supernatant was transferred to an HPLC vial for MSD analysis.
(§2) A standard curve with a wide range of Compound 1 concentrations was prepared using the same method described above for tissue lysate treatment. The corresponding peak of the compound was identified first in the standards. The areas of the peaks were measured and converted into a standard correlation curve for estimation of Compound 1 concentration in the samples. The amount of compound in each sample is expressed as % injected dose/gram tissue (% ID/g tissue).
Method: Compound 1 solution was prepared as described previously. One ml of 10 mM Compound 1 solution was injected intravenously (tail vein) into rats under isofluorane anesthesia. Blood and urine samples were collected before injection and at 15, 30, 60, 90 and 120 minutes after injection. Samples treatments and LC/MS measurement are the same as the mouse samples described in 1A.

[2] = Bio-distribution and bio-stability of Compound 1 in mice (LC/MS of blood, urine and organs after IV injection); type: in vivo; conditions: mouse; for tissue uptake at 30 min: 1 µmol per animal
Experimental: Method: Compound 1 was dissolved in DMSO to achieve a 100 mM stock solution. This was then diluted with 1× PBS containing 3% Solutol to achieve a concentration of 5 mM. 200 μl of 5 mM Compound 1 solution was injected into the tail vein in mice animals under isofluorane anesthesia. The in vivo uptake was two hours.
Blood and urine samples were collected at 30, 60, 90 and 120 minutes. Samples were immediately placed on ice to prevent compound degradation. After blood and urine sampling were completed at 120 minutes, the mouse was sacrificed by cervical dislocation. The following whole organs were harvested within 30-40 minutes in the following order; lower GI, upper GI, spleen, pancreas, gall bladder, liver, heart, kidneys, lungs, about 0.3 gram of muscle from both legs, about 0.4 gram of skin at the back, the entire brain and about 0.4 gram of fat inside the abdomen.
as §1, §2

[3] = tested on: MRC5 human normal lung fibroblast; assay: Cytotoxicity assay (MTT reduction), MRC5 cells; type: cell-based; conditions: MRC5, 0-10000 nM, 24 hours
Experimental: (§3) Method: The assay is based on the ability of viable cells to reduce 3-[4,5-dimethylthiazol-2-yl]-2,5-diphenyl tetrazolium bromide to colored formazan crystals. Ls174T human colorectal adenocarcinoma, A172 human brain glioblastoma, MRC5 human normal lung fibroblast, and ALM12 mouse normal liver cell lines were selected for this study. Cells were cultured with different concentration of Compound 1 (0, 100, 500, 1000, 5000, 10000 nM) for 24 hours and then incubated with 0.5 mg/ml of 3-[4,5-dimethylthiazol-2-yl]-2,5-diphenyl tetrazolium bromide for 1 hour. Cells were lysed and formazan crystals were dissolved with 2-propanol for 1 hour and the optical density of the resultant colored 2-propanol was measured. The percentages of cell survival were calculated based on the optical densities.

[4] = tested on: ALM12 mouse normal liver cell lines; assay: Cytotoxicity assay (MTT reduction), ALM12 cells; type: cell-based; conditions: ALM12, 0-10000 nM, 24 hours
Experimental: as §3

[5] = tested on: Ls174T human colorectal adenocarcinoma; assay: Cytotoxicity assay (MTT reduction), Ls174T cells; type: cell-based; conditions: 0-10000 nM, 24 hours
Experimental: as §3

[6] = tested on: A172 human brain glioblastoma; assay: Cytotoxicity assay (MTT reduction), A172 cells; type: cell-based; conditions: A172, 0-10000 nM, 24 hours
Experimental: as §3

## O=[N+]([O-])c1nccn1Cc1cn(C(CO)CF)nn1 (stereo not drawn) [Compound 1, 3-Fluoro-2-(4-((2-nitro-1H-imidazol-1-yl)methyl)-1H-1,2,3-triazol-1-yl)propan-1-ol]
[1]; 10 µmol per animal, IV tail vein 1 ml of 10 mM, urine at 30 minute, read-out: urine level
  tissue uptake at 30 min: 5.3 %ID/g
[1]
  urine excretion and blood clearance: fast
  urine excretion index (averaged urine % ID/g divided by blood % ID/g at 120 minute): 36.62
[1]; whole blood, 10 µmol per animal, IV tail vein 1 ml of 10 mM, blood at 30 minutes, read-out: blood level
  tissue uptake at 30 min: 0.67 %ID/g
[1]; whole blood, 10 µmol per animal, IV tail vein 1 ml of 10 mM, blood at 120 minutes, read-out: blood level
  tissue uptake at 120 min: 0.15 %ID/g
[2]; IV tail vein 200 μl of 5 mM, urine at 30 minutes, read-out: urine level
  tissue uptake at 30 min: 95.6 %ID/g
[2]
  blood clearance and urine excretion: fast
  urine excretion index (averaged urine % ID/g divided by blood % ID/g at 120 minute): 88.69
[2]; IV tail vein 200 μl of 5 mM, blood at 120 minutes
  blood level: 0.59%
[2]; organs harvested after 120 minutes
  levels in gall bladder and GI system: low
[2]; whole blood, IV tail vein 200 μl of 5 mM, blood at 30 minutes, read-out: blood level
  tissue uptake at 30 min: 4.1 %ID/g
[3]
  cytotoxicity: numbers of viable cells vs untreated control cells: no cytotoxic effects; also recorded: no difference
[4]
  cytotoxicity: numbers of viable cells vs untreated control cells: no difference
[5]
  cytotoxicity: numbers of viable cells vs untreated control cells: no cytotoxic effects; also recorded: no difference
[6]
  cytotoxicity: numbers of viable cells vs untreated control cells: no cytotoxic effects; also recorded: no difference

Reference: US7977361B2, “Nitro-imidazole hypoxia imaging agent” (Siemens Medical Solutions USA, Inc., priority 2007, dated 2011)
